Measured values: ChEMBL document CHEMBL5120845, “Design and synthesis of novel macrolones bridged with linkers from 11,12-positions of macrolides” (Bioorg Med Chem Lett, 2022)
≈ marks a conversion by molar mass, not a printed value.

How the values were obtained:
[1] = Intrinsic clearance in human liver microsomes at 1 uM by LC-MS/MS analysis; format: ADME, Microsome; settings: read-out: CLH
[2] = Stability in rat liver microsomes assessed as unchanged drug level at 1 uM by LC-MS/MS analysis; format: ADME, Microsome; settings: time 60 min, read-out: Stability
[3] = Half life in human liver microsomes at 1 uM by LC-MS/MS analysis; format: ADME, Microsome
[4] = Stability in rat liver microsomes assessed as unchanged drug level at 1 uM after 60 mins by LC-MS/MS analysis; format: ADME, Microsome; settings: read-out: Stability
Streptococcus pneumoniae [5] = test: Antibacterial activity against Streptococcus pneumoniae ATCC 49619 by microbroth dilution method; format: functional
[6] = tested on: Mycoplasmoides pneumoniae; test: Antibacterial activity against erythromycin-resistant Mycoplasma pneumoniae A2059G by microbroth dilution method; format: functional
[7] = tested on: Mycoplasmoides pneumoniae; test: Antibacterial activity against erythromycin-resistant Mycoplasma pneumoniae A2058T by microbroth dilution method; format: functional
Streptococcus pneumoniae [8] = test: Antibacterial activity against Streptococcus pneumoniae 07P390 by microbroth dilution method; format: functional
Staphylococcus aureus [9] = test: Antibacterial activity against Staphylococcus aureus PU32 by microbroth dilution method; format: functional
Streptococcus pneumoniae [10] = test: Antibacterial activity against Streptococcus pneumoniae PU09 by microbroth dilution method; format: functional
Staphylococcus aureus [11] = test: Antibacterial activity against Staphylococcus aureus 15B196 by microbroth dilution method; format: functional
[12] = tested on: Mycoplasmoides pneumoniae; test: Antibacterial activity against erythromycin-resistant Mycoplasma pneumoniae A2058G by microbroth dilution method; format: functional
Streptococcus pyogenes = test: Antibacterial activity against Streptococcus pyogenes 12-206 by microbroth dilution method; format: functional
[13] = tested on: Mycoplasmoides pneumoniae; test: Antibacterial activity against erythromycin-susceptible Mycoplasma pneumoniae ATCC 29342 by microbroth dilution method; format: functional
Haemophilus influenzae = test: Antibacterial activity against Haemophilus influenzae ATCC 49247 by microbroth dilution method; format: functional

Structure (SMILES) | CLint scaled at 1 µM [1] | remaining at 1 h, 1 µM [2] | half-life at 1 µM [3] | remaining at 1 h, 1 µM [4] | MIC (Streptococcus pneumoniae [5]) | MIC [6] | MIC [7] | MIC (Streptococcus pneumoniae [8]) | MIC (Staphylococcus aureus [9]) | MIC (Streptococcus pneumoniae [10]) | MIC (Staphylococcus aureus [11]) | MIC [12] | MIC (Streptococcus pyogenes) | MIC [13] | MIC (Haemophilus influenzae)
CCOc1ccc2ccc(=O)oc2c1 | 70.2 mL/min/kg | 0.695% | 17.8 min | 8.69% |  |  |  |  |  |  |  |  |  |  | 
CC[C@H]1OC(=O)[C@H](C)C(=O)[C@H](C)[C@@H](O[C@@H]2O[C@H](C)C[C@H](N(C)C)[C@H]2O)[C@](C)(OC)C[C@@H](C)C(=O)[C@H](C)[C@H]2N(CCCCc3ccc4c(=O)c(C(=O)O)cn(C5CC5)c4c3)C(=O)O[C@]12C | 31.9 mL/min/kg | 100% | 39.1 min | 35.1% | ≤ 0.008 µg/mL | 32 µg/mL (≈ 35.7 µM) | 16 µg/mL (≈ 17.9 µM) | 2 µg/mL (≈ 2.23 µM) | 1 µg/mL (≈ 1.12 µM) | 0.5 µg/mL (≈ 0.558 µM) | 8 µg/mL (≈ 8.93 µM) | 32 µg/mL (≈ 35.7 µM) | 0.25 µg/mL (≈ 0.279 µM) | 0.008 µg/mL (≈ 0.00893 µM) | 4 µg/mL (≈ 4.46 µM)
CC[C@H]1OC(=O)[C@H](C)C(=O)[C@H](C)[C@@H](O[C@@H]2O[C@H](C)C[C@H](N(C)C)[C@H]2O)[C@](C)(OC)C[C@@H](C)C(=O)[C@H](C)[C@H]2N(CCCN3CCN(c4cc5c(cc4F)c(=O)c(C(=O)O)cn5C4CC4)CC3)C(=O)O[C@]12C | 11.3 mL/min/kg | 95.1% | 110 min | 65% | 0.016 µg/mL (≈ 0.0163 µM) | 8 µg/mL (≈ 8.13 µM) | 8 µg/mL (≈ 8.13 µM) | 0.12 µg/mL (≈ 0.122 µM) | 1 µg/mL (≈ 1.02 µM) | 1 µg/mL (≈ 1.02 µM) | 64 µg/mL (≈ 65 µM) | 8 µg/mL (≈ 8.13 µM) | 1 µg/mL (≈ 1.02 µM) | 0.008 µg/mL (≈ 0.00813 µM) | 8 µg/mL (≈ 8.13 µM)
CC[C@H]1OC(=O)[C@H](C)[C@@H](O[C@H]2C[C@@](C)(OC)[C@@H](O)[C@H](C)O2)[C@H](C)[C@@H](O[C@@H]2O[C@H](C)C[C@H](N(C)C)[C@H]2O)[C@](C)(OC)C[C@@H](C)C(=O)[C@H](C)[C@@H](O)[C@]1(C)O [CLARITHROMYCIN] |  |  |  |  | 0.03 µg/mL (≈ 0.0401 µM) |  |  | 512 µg/mL (≈ 685 µM) | 64 µg/mL (≈ 85.6 µM) | 8 µg/mL (≈ 10.7 µM) | 512 µg/mL (≈ 685 µM) |  | 512 µg/mL (≈ 685 µM) |  | 16 µg/mL (≈ 21.4 µM)
CC[C@H]1OC(=O)[C@H](C)C(=O)[C@H](C)[C@@H](O[C@@H]2O[C@H](C)C[C@H](N(C)C)[C@H]2O)[C@](C)(OC)C[C@@H](C)C(=O)[C@H](C)[C@H]2N(CCCCn3cnc(-c4cccnc4)c3)C(=O)O[C@]12C [TELITHROMYCIN] | 38.4 mL/min/kg | 93.2% | 32.4 min | 26.3% | 0.008 µg/mL (≈ 0.00985 µM) | 256 µg/mL (≈ 315 µM) | 256 µg/mL (≈ 315 µM) | 0.06 µg/mL (≈ 0.0739 µM) | 0.5 µg/mL (≈ 0.616 µM) | 1 µg/mL (≈ 1.23 µM) | 64 µg/mL (≈ 78.8 µM) | 256 µg/mL (≈ 315 µM) | 0.12 µg/mL (≈ 0.148 µM) | 0.008 µg/mL (≈ 0.00985 µM) | 4 µg/mL (≈ 4.93 µM)
